Assays:
PC-3 cells = assay: Nexin assay for apoptosis, 24 h Q10; assay type: cell-based; details: 50 μM and 100 μM Q10, 24 hours; increase less than in PaCa2
Text: (§1) The 7AAD dye will enter into cells with permeabilized cell membranes; primarily those cells that are in late apoptosis. Annexin-V-PE is a dye that binds to Phosphotidyl serine, which is exposed on the outer surface of the plasma membrane in early apoptotic cells. The Nexin reagent thus can be used to differentiate between different populations of apoptotic cells in a flow cytometer.

HepG2 cells = assay: Nexin assay for apoptosis, 24 h Q10; assay type: cell-based; details: 50 μM Q10, 24 hours
Text: as §1

[1] = tested on: Pancreatic Cancer Cells (PaCa2); assay: Real-time PCR Diabetes Array; assay type: cell-based; details: 100 uM Q10, various times
Description: Experiments were carried out essentially as described above.

[2] = tested on: Succinate Dehydrogenase (SDH) Subunit B; assay: Western blot, Succinate Dehydrogenase B in mitochondrial preparations; assay type: cell-based; details: for Succinate Dehydrogenase B Average Normalized Volume: NCIE0808 Mitopreps
Description: The above blots were stripped by incubating for 30 minutes with methanol, followed by two 10 minute washes with TBS-T, then 30 minutes of incubation with Stripping buffer at 50 deg C., and followed by two washes with 100 ml or more of TBS-T for 30′ each. The blots were scanned in laser scanner to check for complete stripping. The blots were activated with methanol for 5 seconds, washed with water for 5 minutes, and TBST for 15 minutes. The blots were blocked for 1 hour with 5% blocking reagent in TBS-T at room temperature and then washed 3 times with TBS-T (1×-15′; 2×5′ each) and probed with the primary antibody for PKM2, SDHB or SDHC in 5% BSA in TBS-T by incubation overnight at 4 deg C. with gentle shaking. The primary antibody for SDHC (ABNOVA H00006391-MO2; antimouse) was at 1:500 dilution. The primary antibody for SDHB was from Abcam ab4714-200; antimouse; at 1:1000 dilution. The primary antibody for Pyruvate Kinase M2 (PKM2) was from Novus Biologicals H00005315-D0IP; antirabbit; at 1:500 dilution. After incubation with primary antibodies, the membranes were washed 3 times with TBS-T (1×-15′; 2×5′ each) and probed with the secondary antibody (SDHB & C antimouse; and PKM2 antirabbit; 1:10,000 dilution) for 1 h on the orbital tilting shaker at room temperature. After 1 h of incubation, the blots were washed 3 times with TBS-T (1×-15′; 2×5′ each) and incubated with ECF reagent for 5 minutes and then each blot scanned with 5100 Fuji Laser scanner at 25 uM resolution, 16 bit, green laser, at 400V and at 500 V.

ATP Citrate Lyase (ACL) = assay: Western blot, ATP Citrate Lyase levels in normal and cancer cells; assay type: cell-based, human
Description: The whole cell pellets were resuspended one at a time in 1 mL of C7 buffer and transferred to labeled 15 mL tubes. The samples were then sonicated in the cold room on ice using 6 sonic pulses with the setting at #14. The samples were spun for a short time to 2500 g after sonication and the samples transferred to 2 ml tubes. The pH was verified of each sample (pH should be 9.0) using the foam remaining in the […] sample tubes.
After transfer each of the blots was placed in between 2 Whatman Filter papers and dried for 15-20 minutes. After drying the blots were labeled with the date, the type of samples and either blot 1 or blot 2 using a HB pencil. The molecular weight markers were outlined with the pencil and with single lines for the blue and a doublet for the colored markers. The blots were activated with methanol for 5 seconds, washed with water for 5 minutes, and TBST for 15 minutes. The blots were blocked for 1 hour with 5% blocking reagent in TBS-T at room temperature and then washed 3 times with TBS-T (1×-15′; 2×5′ each). Blot 1 was probed with the primary antibody for IDH1 (Cell Signaling #3997) in TBST with 5% BSA (at 1:1000 dilutions) and blot 2 with the rabbit polyclonal antibody for ATP Citrate Lyase in 5% BSA (Cell Signaling #4332) at 1:1000 dilution by incubation overnight at 4 deg C. with shaking. After the overnight incubation with primary antibodies, the blots were washed 3 times with TBS-T (1×-15′; 2×5′ each) and probed with the secondary antibody (antirabbit; 1:10,000 dilution) for 1 h on the orbital tilting shaker at room temperature. After 1 h of incubation with secondary antibodies, the blots were washed 3 times with TBS-T (1×-15′; 2×5′ each) and then incubated with ECF reagent for 5 mins and then each blot scanned with 5100 Fuji Laser scanner at 25 uM resolution, 16 bit, green laser, at 400V and at 500 V.
The samples were processed and run on a 4-12% Bis-Tris Novex NuPAGE gel as described above. The gels were run, transferred and stained essentially as described above.
The Isocitrate dehydrogenase blot was stripped by incubating for 30 minutes with methanol, followed by two 10 minute washes with TBS-T, then 30 minutes of incubation with stripping buffer at 50 deg C., and followed by two washes with 100 ml or more of TBS-T for 30′ each. The blot was scanned in laser scanner to check for complete stripping. The blot was activated with methanol for 5 seconds, washed with water for 5 minutes, and TBST for 15 minutes. The blot was blocked for 1 hour with 5% blocking reagent in TBS-T at room temperature and then washed 3 times with TBS-T (1×-15′; 2×5′ each). This was then probed with the rabbit polyclonal antibody for ATP Citrate Lyase in 5% BSA (Cell Signaling #4332) at 1:1000 dilution overnight at 4 deg C. with shaking. After the overnight incubation with primary antibody for ATP Citrate Lyase, the membrane was washed 3 times with TBS-T (1×-15′; 2×5′ each) and probed with the secondary antibody (antirabbit; 1:10,000 dilution) for 1 h on the orbital tilting shaker at room temperature. After 1 h of incubation with secondary antibodies, the blot was washed 3 times with TBS-T (1×-15′; 2×5′ each) and then incubated with ECF reagent for 5 minutes and then each blot scanned with 5100 Fuji Laser scanner at 25 uM resolution, 16 bit, green laser, at 400V and at 500 V.
In this experiment (western blot experiment 3), and in all of the experiments described below in this Example (i.e., western blot experiments 4 through 9), the cells were additionally treated with either 5 mM glucose (“5G”) or 22 mM glucose (“22G”). The samples derived from the cells were processed and run on a 4-12% Bis-Tris Novex NuPAGE gel as described above. The gels were run, transferred and stained essentially as described above.
The levels of IDH1, ATP citrate lyase and actin levels were determined by probing the blots with primary antibodies for IDH1, ATP citrate lyase and actin, essentially as described above.

melanoma cell = assay: Bcl2 level after CoQ-10 in the presence of VEGF; assay type: cell-based

COC1=C(OC)C(=O)C(C/C=C(\C)CC/C=C(\C)CC/C=C(\C)CC/C=C(\C)CC/C=C(\C)CC/C=C(\C)CC/C=C(\C)CC/C=C(\C)CC/C=C(\C)CCC=C(C)C)=C(C)C1=O [Q10, Coenzyme Q10]
early and late apoptotic population (PC-3 cells): increase in both early and late apoptotic population | increase of gated population in late and early apoptotic stages (HepG2 cells): about 20% | genes modulated by Q10 treatment (Diabetes arrays) [1]: ABCC8, ACLY, ADRB3, CCL5, CEACAM1, CEBRA, FOXG1, FOXP3, G6PD, GLP1R, GPD1, HNF4A, ICAM1, IGFBP5, INPPL1, IRS2, MAPK14, ME1, NFKB1, PARP1, PIK3C2B, PIK3CD, PPARGC1B, PRKAG2, PTPN1, PYGL, SLC2A4, SNAP25, HNF1B, TNRFSF1A, TRIB3, VAPA, VEGFA, IL4R and IL6 | Succinate Dehydrogenase B Average Normalized Volume ([2]; 50 uM, 6 h): 1077 | Succinate Dehydrogenase B Average Normalized Volume ([2]; 100 uM, 3 h): 964 | Succinate Dehydrogenase B Average Normalized Volume ([2]; 100 uM, 6 h): 934 | SDH protein levels in the mitochondrion ([2]; mitochondrial preparations of cancer cells): increase | ATPCL Average Normalized Intensity (ATP Citrate Lyase (ACL); HDFa, HDF-50): ~17500 | ATPCL Average Normalized Intensity (ATP Citrate Lyase (ACL); HDFa, HDF-100): ~25000 | ATP Citrate Lysase Normalized Intensity as % (ATP Citrate Lyase (ACL); HepG2, Hep5g48-50): 85% | ATP Citrate Lysase Normalized Intensity as % (ATP Citrate Lyase (ACL); HepG2, Hep5g48-100): 79% | ATP Citrate Lysase Normalized Intensity as % (ATP Citrate Lyase (ACL); HepG2, Hep22G48-50): 129% | ATP Citrate Lysase Normalized Intensity as % (ATP Citrate Lyase (ACL); HepG2, Hep22G48-100): 209% | ATPCL Average Normalized Intensity (ATP Citrate Lyase (ACL); MCF-7, MCF-50): ~7500 | ATPCL Average Normalized Intensity (ATP Citrate Lyase (ACL); MCF-7, MCF-100): ~12500 | ATP Citrate Lysase Normalized Intensity as % (ATP Citrate Lyase (ACL); PACA2, PACA5g48-50): 68% | ATP Citrate Lysase Normalized Intensity as % (ATP Citrate Lyase (ACL); PACA2, PACA5g48-100): 42% | ATP Citrate Lysase Normalized Intensity as % (ATP Citrate Lyase (ACL); PACA2, PACA22G48-50): 112% | ATP Citrate Lysase Normalized Intensity as % (ATP Citrate Lyase (ACL); PACA2, PACA22G48-100): 174% | expression of ACL enzymes (ATP Citrate Lyase (ACL); cancer cells): dose-dependent decrease | expression of ACL (ATP Citrate Lyase (ACL); normal cells): trend towards increased expression | level of Bcl2 (melanoma cell): decreased level
